Earlier results as cited in patent publication US20200338051A1, “NON-CLINICAL LIQUID FORMULATIONS OF PAN-JAK INHIBITOR” (Janssen Pharmaceutica NV, priority 2019, published 2020).
Like-named read-outs stand apart in the source and are kept apart here.

How the values were obtained:
[1] = target: JAK1 (Homo sapiens, UniProt P23458); conditions: in vitro
[2] = target: JAK2 (Homo sapiens, UniProt O60674); conditions: in vitro
[3] = target: T1, JAK3 (Homo sapiens, UniProt P52333); conditions: in vitro
T1 sequence (P52333 1-1124): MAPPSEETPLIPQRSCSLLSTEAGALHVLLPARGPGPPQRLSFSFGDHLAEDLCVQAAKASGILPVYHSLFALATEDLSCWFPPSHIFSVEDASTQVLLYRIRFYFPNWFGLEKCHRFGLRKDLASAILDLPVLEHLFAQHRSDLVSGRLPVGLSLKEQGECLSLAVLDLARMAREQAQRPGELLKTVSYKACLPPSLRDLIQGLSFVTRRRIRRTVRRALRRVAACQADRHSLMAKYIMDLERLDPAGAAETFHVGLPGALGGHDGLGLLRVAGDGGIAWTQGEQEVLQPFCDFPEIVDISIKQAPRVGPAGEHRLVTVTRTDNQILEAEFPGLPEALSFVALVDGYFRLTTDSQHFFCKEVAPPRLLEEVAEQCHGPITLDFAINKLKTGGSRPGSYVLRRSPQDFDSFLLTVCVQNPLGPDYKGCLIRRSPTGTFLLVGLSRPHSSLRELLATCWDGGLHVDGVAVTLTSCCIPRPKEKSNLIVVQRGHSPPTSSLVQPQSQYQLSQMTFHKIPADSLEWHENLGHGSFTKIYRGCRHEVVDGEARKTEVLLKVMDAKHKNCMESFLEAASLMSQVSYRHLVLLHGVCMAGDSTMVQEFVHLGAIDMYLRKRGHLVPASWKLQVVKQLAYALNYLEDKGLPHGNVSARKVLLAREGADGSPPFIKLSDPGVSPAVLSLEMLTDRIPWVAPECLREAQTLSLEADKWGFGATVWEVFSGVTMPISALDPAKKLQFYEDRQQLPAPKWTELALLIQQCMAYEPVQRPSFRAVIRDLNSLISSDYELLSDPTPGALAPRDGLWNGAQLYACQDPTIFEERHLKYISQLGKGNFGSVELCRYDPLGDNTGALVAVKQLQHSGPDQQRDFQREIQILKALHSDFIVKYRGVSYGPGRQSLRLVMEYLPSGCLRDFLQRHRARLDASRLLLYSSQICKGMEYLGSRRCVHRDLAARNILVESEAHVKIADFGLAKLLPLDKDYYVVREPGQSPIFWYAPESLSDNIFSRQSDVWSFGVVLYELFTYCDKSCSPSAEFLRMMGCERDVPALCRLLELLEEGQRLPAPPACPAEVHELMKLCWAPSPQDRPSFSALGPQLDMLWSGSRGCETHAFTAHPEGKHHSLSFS

[4] = target: TYK2 (Homo sapiens, UniProt P29597); conditions: in vitro
[5] = test system: phosphorylation of STAT5; conditions: PBMC, IL-2 stimulus
[6] = test system: phosphorylation of STAT4; conditions: PBMC, INF-α stimulus
[7] = test system: phosphorylation of STAT5; conditions: PBMC, GM-CSF stimulus

Sequence of TYK2 (P29597 whole entry, species assumed): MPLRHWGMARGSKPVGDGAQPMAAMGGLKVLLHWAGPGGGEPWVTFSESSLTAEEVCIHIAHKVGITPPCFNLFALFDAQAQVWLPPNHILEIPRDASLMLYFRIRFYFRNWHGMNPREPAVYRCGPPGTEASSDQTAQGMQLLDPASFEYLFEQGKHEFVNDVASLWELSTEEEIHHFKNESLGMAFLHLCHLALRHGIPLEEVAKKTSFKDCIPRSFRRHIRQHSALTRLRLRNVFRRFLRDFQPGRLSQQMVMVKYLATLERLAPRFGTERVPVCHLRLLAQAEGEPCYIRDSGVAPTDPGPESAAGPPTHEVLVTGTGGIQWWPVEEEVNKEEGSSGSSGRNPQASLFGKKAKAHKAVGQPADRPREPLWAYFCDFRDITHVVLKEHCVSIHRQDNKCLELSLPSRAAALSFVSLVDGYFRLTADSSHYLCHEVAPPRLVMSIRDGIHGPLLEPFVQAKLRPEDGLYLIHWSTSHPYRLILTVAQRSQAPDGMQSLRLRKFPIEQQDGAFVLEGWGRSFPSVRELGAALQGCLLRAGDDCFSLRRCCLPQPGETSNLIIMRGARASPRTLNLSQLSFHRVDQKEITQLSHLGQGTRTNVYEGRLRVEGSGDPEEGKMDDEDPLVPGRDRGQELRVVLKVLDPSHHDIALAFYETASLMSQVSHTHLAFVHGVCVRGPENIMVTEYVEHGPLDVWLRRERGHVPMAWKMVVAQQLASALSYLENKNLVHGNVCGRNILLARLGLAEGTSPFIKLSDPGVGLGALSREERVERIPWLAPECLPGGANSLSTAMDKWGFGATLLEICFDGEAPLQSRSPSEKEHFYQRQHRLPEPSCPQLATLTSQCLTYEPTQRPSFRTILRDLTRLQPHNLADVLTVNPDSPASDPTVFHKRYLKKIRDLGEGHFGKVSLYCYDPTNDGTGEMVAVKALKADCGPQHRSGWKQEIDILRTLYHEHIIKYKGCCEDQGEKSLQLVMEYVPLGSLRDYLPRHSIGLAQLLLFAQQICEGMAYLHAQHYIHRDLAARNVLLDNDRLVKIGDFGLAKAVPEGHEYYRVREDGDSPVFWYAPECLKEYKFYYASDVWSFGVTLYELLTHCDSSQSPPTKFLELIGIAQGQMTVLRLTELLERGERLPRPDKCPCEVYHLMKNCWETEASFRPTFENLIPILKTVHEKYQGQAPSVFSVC
Sequence of JAK2 (O60674 whole entry, species assumed): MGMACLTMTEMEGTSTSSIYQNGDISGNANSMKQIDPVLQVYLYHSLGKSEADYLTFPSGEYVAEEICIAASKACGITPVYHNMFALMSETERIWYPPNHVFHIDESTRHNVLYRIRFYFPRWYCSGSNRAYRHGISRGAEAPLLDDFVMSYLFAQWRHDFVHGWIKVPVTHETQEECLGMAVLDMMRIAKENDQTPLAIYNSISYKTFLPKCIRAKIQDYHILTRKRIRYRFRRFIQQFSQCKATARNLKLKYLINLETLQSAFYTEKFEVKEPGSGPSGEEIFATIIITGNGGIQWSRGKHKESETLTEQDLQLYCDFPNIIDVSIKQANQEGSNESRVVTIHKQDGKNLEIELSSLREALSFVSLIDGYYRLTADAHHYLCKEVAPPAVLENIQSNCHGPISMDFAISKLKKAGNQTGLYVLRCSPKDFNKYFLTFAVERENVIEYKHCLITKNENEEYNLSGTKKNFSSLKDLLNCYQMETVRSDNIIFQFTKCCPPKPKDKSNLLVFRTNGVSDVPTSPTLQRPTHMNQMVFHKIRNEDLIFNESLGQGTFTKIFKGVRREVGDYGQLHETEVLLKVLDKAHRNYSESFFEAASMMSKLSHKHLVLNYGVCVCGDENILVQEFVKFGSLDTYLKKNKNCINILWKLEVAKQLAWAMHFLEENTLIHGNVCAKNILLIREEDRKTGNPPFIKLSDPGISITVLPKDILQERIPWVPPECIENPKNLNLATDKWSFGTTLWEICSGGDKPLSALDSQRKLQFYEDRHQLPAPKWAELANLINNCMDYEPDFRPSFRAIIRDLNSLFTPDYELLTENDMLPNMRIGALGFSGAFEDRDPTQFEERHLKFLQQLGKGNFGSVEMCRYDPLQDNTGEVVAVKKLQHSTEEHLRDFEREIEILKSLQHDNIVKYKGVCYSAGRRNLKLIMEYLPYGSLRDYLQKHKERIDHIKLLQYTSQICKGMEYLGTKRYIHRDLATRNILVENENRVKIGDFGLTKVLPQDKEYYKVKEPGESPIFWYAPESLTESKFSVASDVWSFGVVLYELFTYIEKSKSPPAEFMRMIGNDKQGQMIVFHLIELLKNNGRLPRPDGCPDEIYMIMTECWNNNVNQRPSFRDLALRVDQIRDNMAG
Sequence of JAK1 (P23458 whole entry, species assumed): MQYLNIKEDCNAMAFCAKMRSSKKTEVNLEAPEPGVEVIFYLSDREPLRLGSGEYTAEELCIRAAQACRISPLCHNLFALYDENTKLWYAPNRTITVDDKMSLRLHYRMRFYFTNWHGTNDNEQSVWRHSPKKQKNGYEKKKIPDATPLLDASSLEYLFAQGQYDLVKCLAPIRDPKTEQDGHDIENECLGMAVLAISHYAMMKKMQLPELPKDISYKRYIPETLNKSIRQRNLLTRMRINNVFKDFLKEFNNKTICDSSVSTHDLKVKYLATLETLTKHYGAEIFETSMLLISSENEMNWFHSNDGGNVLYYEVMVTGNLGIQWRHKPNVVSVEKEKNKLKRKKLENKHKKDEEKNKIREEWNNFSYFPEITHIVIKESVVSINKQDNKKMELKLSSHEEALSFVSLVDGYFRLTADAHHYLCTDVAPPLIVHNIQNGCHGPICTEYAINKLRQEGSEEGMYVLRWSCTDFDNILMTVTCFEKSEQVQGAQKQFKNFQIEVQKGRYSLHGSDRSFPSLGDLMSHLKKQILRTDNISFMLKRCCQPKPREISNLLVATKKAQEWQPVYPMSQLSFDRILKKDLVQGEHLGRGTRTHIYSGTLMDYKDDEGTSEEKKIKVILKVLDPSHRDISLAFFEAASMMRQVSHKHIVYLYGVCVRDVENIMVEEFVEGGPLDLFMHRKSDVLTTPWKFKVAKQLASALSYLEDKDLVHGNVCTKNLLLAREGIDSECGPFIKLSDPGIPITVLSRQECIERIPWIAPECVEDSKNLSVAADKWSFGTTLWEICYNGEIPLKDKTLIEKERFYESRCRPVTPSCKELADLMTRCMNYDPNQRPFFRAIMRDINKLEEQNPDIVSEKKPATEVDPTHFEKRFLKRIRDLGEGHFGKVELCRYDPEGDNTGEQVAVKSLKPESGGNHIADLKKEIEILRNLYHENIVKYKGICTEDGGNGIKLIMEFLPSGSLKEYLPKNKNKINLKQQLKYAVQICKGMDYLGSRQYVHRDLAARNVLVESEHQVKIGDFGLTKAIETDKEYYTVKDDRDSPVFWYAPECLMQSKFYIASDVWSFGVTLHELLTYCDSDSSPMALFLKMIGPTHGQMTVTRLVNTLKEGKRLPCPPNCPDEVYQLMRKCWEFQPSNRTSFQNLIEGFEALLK

In the case of `CC(C)(O)CNC(=O)Cc1nc2cnc3[nH]ccc3c2n1[C@H]1CC[C@H](CC#N)CC1` [drug substance, 2-(1-((1r,4r)-4-(cyanomethyl)cyclohexyl)-1,6-dihydroimidazo[4,5-d]pyrrolo[2,3-b]pyridin-2-yl)-N-(2-hydroxy-2-methylpropyl)acetamide], the “Enzymatic activity at JAK1” value [1] is given as “potent enzymatic activity”, the “Enzymatic activity at JAK2” value [2] is given as “potent enzymatic activity” and the “Enzymatic activity at JAK3” value [3] is given as “potent enzymatic activity”. The “Enzymatic activity at TYK2” value [4] was “potent enzymatic activity”, the “Inhibition of phosphorylation of STAT5” value [5] was “showed cellular activity” and the “Inhibition of phosphorylation of STAT4” value [6] was “showed cellular activity”. For the same molecule, the “Inhibition of phosphorylation of STAT5” value [7] was “showed cellular activity”, the Systemic exposure (in vivo) was “low systemic exposure” and the “Concentrations in the colon versus plasma” value (intra-colonic dosing) was “much higher than those in the plasma”. For the same molecule, the “Concentrations in the colon versus plasma” value (oral dosing) was “much higher than those in the plasma”.
